Results from patent US10889565B2, “4-hydroxy-3-sulfonylpyridin-2(1H)-ones as APJ receptor agonists” (BRISTOL-MYERS SQUIBB COMPANY, priority 2016, dated 2021).

Target: T1, human APJ receptor (Homo sapiens, UniProt P35414)
T1 construct: expressed in transfected cells
T1 sequence (P35414 1-380): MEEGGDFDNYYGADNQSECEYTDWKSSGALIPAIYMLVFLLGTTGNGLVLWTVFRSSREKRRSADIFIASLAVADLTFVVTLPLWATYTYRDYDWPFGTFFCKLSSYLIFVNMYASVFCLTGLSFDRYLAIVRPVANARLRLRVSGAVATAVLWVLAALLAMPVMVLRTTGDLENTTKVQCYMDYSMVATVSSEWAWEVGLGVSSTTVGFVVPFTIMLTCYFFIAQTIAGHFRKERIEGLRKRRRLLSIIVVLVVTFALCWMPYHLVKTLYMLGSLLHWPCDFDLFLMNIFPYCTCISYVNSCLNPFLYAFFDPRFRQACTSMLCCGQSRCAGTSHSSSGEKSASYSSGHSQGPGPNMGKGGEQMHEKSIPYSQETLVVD
Assay: Intracellular cAMP accumulation assay (APJ hcAMP, HTRF)
Type: cell-based
Details: HEK293 cells stably expressing human APJ receptor; inhibition of forskolin-mediated cAMP production; read-out: Human APJ cAMP EC50 Potency range
Protocol: Intracellular cAMP Accumulation Assay
HEK293 cells stably expressing human APJ receptor were used to assess the activity of compounds. Cultured cells were detached and resuspended in the cAMP Homogeneous Time-Resolved Fluorescence (HTRF) assay buffer (Cisbio cat; #62AM4PEJ). The assay was performed in 384-well assay plates (Perkin-Elmer; cat #6008289) according to assay protocol provided by the manufacturer. Serial dilutions of a compound together with assay buffer containing […] IBMX and 2 μM forskolin were added to each well containing 5,000 cells and incubated for 30 minutes at room temperature. Subsequently, cAMP D2 reagent was added in the lysis buffer followed by the EuK antibody (Cisbio; cat #62AM4PEJ) and incubated for 60 min. The fluorescence emission ratio was measured using fluorometer. The intracellular cAMP concentrations (compound-stimulated inhibition of forskolin-mediated cAMP production) were calculated by extrapolation from a standard curve using known cAMP concentrations. The EC50 values were obtained by fitting the data to a sigmoidal concentration-response curve with variable slope. The maximal achievable inhibition of forskolin-induced cAMP levels (Ymax) for each compound was expressed as relative percentage of inhibition attained using pyroglutamated apelin-13 ((Pyr1)apelin-13) peptide, which was set to 100%.
The examples disclosed below were tested in the APJ in vitro assays described above and were found having human APJ cyclic AMP (hcAMP) activity. The EC50 value of each compound is presented at the end of the example description.
The biological activity of the exemplified compounds of this invention determined by the assay described above is shown at the end of each example.

Q: `CCCCc1[nH]c(=O)c(S(=O)(=O)c2ccc(-c3cccc(F)c3C)cn2)c(O)c1-c1c(OC)cccc1OC` [Example 38, 6-butyl-5-(2,6-dimethoxy-phenyl)-3-((5-(3-fluoro-2-methylphenyl)pyridin-2-yl)sulfonyl)-4-hydroxy-pyridin-2(1H)-one] was tested. Which EC50 did it give?
A: 0.01 to 10 nM

Q: For `CCCCc1[nH]c(=O)c(S(=O)(=O)c2ccccn2)c(O)c1-c1c(OC)cccc1OC` [Example 46, 6-butyl-5-(2,6-dimethoxy-phenyl)-4-hydroxy-3-(pyridin-2-ylsulfonyl) pyridin-2(1H)-one], which EC50 is on record?
A: 0.01 to 10 nM

Q: Which EC50 does the source give for `CCCCc1[nH]c(=O)c(S(=O)(=O)c2ccc(-c3ccc(F)nc3)cn2)c(O)c1-c1c(OC)cccc1OC` [Example 42, 6-butyl-5-(2,6-dimethoxy-phenyl)-3-((6′-fluoro-[3,3′-bipyridin]-6-yl)sulfonyl)-4-hydroxypyridin-2(1H)-one] here?
A: 0.01 to 10 nM

Q: How did the EC50 turn out when `CCCCc1[nH]c(=O)c(S(=O)(=O)c2ccc(-c3ccc(F)nc3)cc2)c(O)c1-c1c(OC)cccc1OC` [Example 6, 6-butyl-5-(2,6-dimethoxy-phenyl)-3-((4-(6-fluoro-pyridin-3-yl)phenyl)sulfonyl)-4-hydroxy-pyridin-2(1H)-one] was run?
A: 0.01 to 10 nM
